Measurements taken from the supplement of paper PMC3493320.

These compounds were tested on NCI-H295R (assay: IC50 (antiproliferative, ATP content)). Conditions: 48 h.
How it was run: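 In 1536-well plates, 1500 adrenocortical carcinoma cells per well were grown overnight in serum-free, ITS-supplemented DMEM before compounds were pin-transferred at 8 final concentrations (0.6 nM to 46 µM). After 48 h at 37 °C and 5% CO2, CellTiter-Glo luminescence was read following 20 min at room temperature and normalised to vehicle and positive-control wells. IC50 values came from logistic curve fits, with compounds lacking any concentration response listed as above the top dose.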
For `C[C@]43CCC(=O)\C=C4\CC[C@@H]1[C@@H]3CC[C@]2(C)[C@H](O)CC[C@@H]12`, the IC50 was greater than 46 µM.
For `Nc1nc(F)nc2c1ncn2[C@H]1O[C@@H](CO)[C@H](O)[C@H]1O`, the IC50 was greater than 46 µM.
`CC(=O)Oc1cccc2c1C(=O)c1c(OC(C)=O)cc(C(=O)O)cc1C2=O` gave an IC50 greater than 46 µM.
For `COC(=O)C1=CCCN(C)C1`, the IC50 was greater than 46 µM.
`CN1C[C@@H]2C[C@H]1CN2c1cc2c(cc1F)c(=O)c(C(=O)O)cn2C1CC1` gave an IC50 greater than 46 µM.
`Nc1nc(Cl)nc2c1ncn2[C@H]1C[C@H](O)[C@@H](CO)O1` gave an IC50 greater than 46 µM.
`CS(=O)(=O)O.Cc1ccc2c(c1)c1c3n2CCNC3CCC1` (stereo not drawn) was tested, and the IC50 was greater than 46 µM.
In the case of `C1CNCCN1.C[C@H](CCC(=O)O)[C@H]1CC[C@H]2[C@@H]3[C@H](O)C[C@@H]4C[C@H](O)CC[C@]4(C)[C@H]3C[C@H](O)[C@]12C`, the IC50 is reported as greater than 46 µM.
In the case of `Clc1ccc2nsnc2c1NC1=NCCN1`, the IC50 is reported as greater than 46 µM.
`O=S([C@](CN1C=CN=N1)(C)[C@H]([C@]([O-])=O)N2C3=O)([C@@]([H])2C3)=O.[Na+]` was tested, and the IC50 was greater than 46 µM.
`C/C1=C2N=C(/C=C3N=C(/C(C)=C4\[N]([Co+][CH2][C@H]5O[C@@H](n6cnc7c(N)ncnc76)[C@H](O)[C@@H]5O)C(C(CC(N)=O)C4(C)CCC(=O)NCC(C)OP(=O)([O-])O[C@H]4[C@@H](O)[C@@H](n5cnc6cc(C)c(C)cc65)O[C@@H]4CO)C4(C)N=C1C(CCC(N)=O)C4(C)CC(N)=O)C(CCC(N)=O)C\3(C)C)C(CCC(N)=O)C/2(C)CC(N)=O` (stereo partly drawn) was tested, and the IC50 was greater than 46 µM.
`NC(CS)C(=O)O` (stereo not drawn) gave an IC50 greater than 46 µM.
Compound `Cl.Clc1ccc(C(OCCN2CCCCC2)c2ccccc2)cc1` (stereo not drawn) has an IC50 greater than 46 µM.
Work on `COc1ccc(Cl)cc1C(=O)NCCc1ccc(S(=O)(=O)NC(=O)NC2CCCCC2)cc1` yielded an IC50 greater than 46 µM.
Compound `CC(C)(C)CC(C)(C)c1ccc(OCCO)cc1` has an IC50 greater than 46 µM.
With `Cc1ccnc2c1NC(=O)c1cccnc1N2C1CC1` the IC50 was greater than 46 µM.
Work on `O=C2N1[C@]([C@@]([H])2NC(C(CC)OC3=CC=CC=C3)=O)([H])SC(C)(C)[C@@H]1[C@@](O)=O` (stereo partly drawn) yielded an IC50 greater than 46 µM.
In the case of `Cl.c1ccc(CN(CC2=NCCN2)c2ccccc2)cc1`, the IC50 is reported as greater than 46 µM.
With `COc1ccc(C=NNC(=O)c2ccncc2)c(C(=O)O)c1OC` the IC50 was greater than 46 µM.
`Nc1ncnc2c1ncn2[C@@H]1O[C@H](COP(=O)(O)OP(=O)(O)OP(=O)(O)O)[C@@H](O)[C@H]1O` was tested, and the IC50 was greater than 46 µM.
For `Nc1ccc(S(=O)(=O)Nc2ccccc2)cc1`, the IC50 was greater than 46 µM.
`O=C(CCCCCCCCCCCCC1CCCC1)Nc1ccc(S(=O)(=O)c2ccc(NC(=O)CCCCCCCCCCCCC3CCCC3)cc2)cc1` gave an IC50 greater than 46 µM.
For `CCOC(=O)c1ccc(N)cc1`, the IC50 was greater than 46 µM.
`CCOC(=O)Cc1ccc(-c2ccccc2)cc1` showed an IC50 greater than 46 µM.
Work on `O=C(O)CCNC(=O)c1ccccc1` yielded an IC50 greater than 46 µM.
In the case of `Cl.O=C(OCCN1CCCCC1)C(O)(c1ccccc1)c1ccccc1`, the IC50 is reported as greater than 46 µM.
Work on `CCCCC/C=C\C/C=C\C/C=C\C/C=C\CCCC(=O)NCC(=O)O` yielded an IC50 greater than 46 µM.
`C=CC(C)(O)CC/C=C(\C)CCC=C(C)C` (stereo not drawn) gave an IC50 greater than 46 µM.
With `CCC(C)(CN(C)C)OC(=O)c1ccccc1.Cl` (stereo not drawn) the IC50 was greater than 46 µM.
For `COc1ccc2c3c1O[C@H]1[C@@H](O)C=C[C@H]4[C@@H](C2)NCC[C@@]341`, the IC50 was greater than 46 µM.
`CCCCCCCCCCCC(=O)OC[C@@H](O)[C@H]1OC[C@H](O)[C@H]1O` was tested, and the IC50 was greater than 46 µM.
In the case of `CC(=O)[C@]2(CC[C@H]3[C@@H]4C[C@H](C)\C1=C\C(=O)CC[C@]1(C)[C@H]4CC[C@]23C)OC(C)=O`, the IC50 is reported as greater than 46 µM.
For `CC(=O)O.CNC(=N)NCCC[C@H](N)C(=O)O`, the IC50 was greater than 46 µM.
`Oc1cc(Cl)ccc1Oc1ccc(Cl)cc1Cl` was tested, and the IC50 was greater than 46 µM.
`CC(=O)Oc1cccc(O)c1` was tested, and the IC50 was greater than 46 µM.
`CCCN1CCC[C@H](c2cccc(O)c2)C1.Cl` showed an IC50 greater than 46 µM.
`O=C(O)C1=CC2=C(C=CC=C2)C(CC3=C(O)C(C(O)=O)=CC4=C3C=CC=C4)=C1O.O=C([C@H](NC([C@@H](NC([C@@H](NC([C@@H](NC([C@@H](N[C@]([C@@H](N%11)CCC%11=O)=O)CC%10=CNC=N%10)=O)CC8=CNC9=CC=CC=C89)=O)CO)=O)CC7=CC=C(C=C7)O)=O)CC5=CNC6=CC=CC=C56)N[C@H](C(N[C@H](C(N%12CCC[C@@H]%12[C@@](NCC(N)=O)=O)=O)CCCNC(N)=N)=O)CC(C)C` was tested, and the IC50 was greater than 46 µM.
In the case of `OC(Cn1cncn1)(Cn1cncn1)c1ccc(F)cc1F`, the IC50 is reported as greater than 46 µM.
Compound `NC(=O)c1ncn([C@@H]2O[C@H](CO)[C@@H](O)[C@H]2O)n1` has an IC50 greater than 46 µM.
`CCOC(=O)C(CS)NCCNC(CS)C(=O)OCC.Cl.Cl` (stereo not drawn) was tested, and the IC50 was greater than 46 µM.
Compound `Cc1ccc(O)c([C@H](CCN(C(C)C)C(C)C)c2ccccc2)c1` has an IC50 greater than 46 µM.
Work on `C[C@]12CCC(=O)C=C1CC[C@@H]1[C@@H]2[C@@H](O)C[C@@]2(C)[C@H]1CC[C@]2(O)C(=O)COP(=O)([O-])[O-].[Na+].[Na+]` yielded an IC50 greater than 46 µM.
`NCCN` was tested, and the IC50 was greater than 46 µM.
